“Also recorded” adds a separate entry of the source.
Legend:
Type in all cases: cell-based
[1] = test system: goldfish retinal ganglion cells; experiment: Axonal outgrowth from dissociated goldfish retinal ganglion cell cultures; details: for decline of AF-1 activity: n.s.; for effect of reducing agents on outgrowth stimulated by AF-1: a-tocopherol 30 μM, MEG 100 μM
Protocol: Axogenesis factor-1 was obtained essentially as described in Schwalb et al., 1995, and Schwalb et al., Neuroscience, 72: 901-910, 1996, the contents of which are incorporated herein by reference). Optic nerves were dissected, cut into fragments 1 mm in length, and incubated in a ratio of 6 nerves in 3 ml of either L-15 media (Gibco BRL) or phosphate-buffered saline (Gibco BRL). After 3-4 hours, nerve fragments were removed by filtering through a 0.22 μm pore low protein-binding filter (Gelman). A low molecular weight fraction of the conditioned media was prepared by ultrafiltration, first with a molecular weight cut-off of 3 kDa (Amicon Centriprep-3), then with a cut-off of 1 kDa (Filtron). The filtrate was used as a positive control at 20-30% final concentration. […] Goldfish (Comet Variety, Mt. Parnell Fisheries, Mt. Parnell Pa.), 6-10 cm in length, were dark-adapted and their retinas dissected. Retinas were incubated with papain (20 μg/ml), activated with cysteine (2.8 mM) for 30 minutes at room temperature, then dissociated by gentle trituration. […] Neuroscience 15: 5514-5625, 1995, the contents of which are incorporated herein by reference). […] Cells were maintained at 21° C. in serum free, defined media containing insulin, selenium, transferrin, bovine serum albumin, catalase, superoxide dismutase, hormones, and vitamins in Eagle's L-15 media as described in Schwalb et al., 1995, the contents of which are incorporated herein by reference). Dissociated cultures of purified rat retinal ganglion cells were prepared by immunopanning as described in Barres et al., Neuron, 1: 791-803, 1988, the contents of which are incorporated herein by reference). In brief, retinas from postnatal day 8 Sparague-Dawley rats were dissociated using papain activated with cysteine. Macrophages were removed by incubation with an anti-rat macrophage antibody (Accurate) followed by immunopanning with an anti-rabbit 1gG antibody. Ganglion cells were isolated by immunopanning with an anti-Thy-1 antibody, then dislodged with trypsin for use in low-density cultures. Rat retinal ganglion cells were maintained at 37° C. in a CO2 incubator using the same medium described above except for the presence of 30 mM bicarbonate. In a typical experiment, samples were plated in quadruplicate in randomized positions of a 24-well plate and the code was concealed to ensure that growth was evaluated in a blinded fashion. Each experiment contained 4 wells of a negative control (media plus supplements only) and 4 wells of a positive control (a standardized AF-1 sample of known activity). […] After the completion of counting, the code was broken, the data tabulated, and means and standard errors were calculated for the 4 replicate wells of each sample using Cricket Graph (CA Associates, […].). […] Group comparisons were based upon pairwise, 2-tailed Student's t-tests. Several independent experiments were performed for most samples, as noted in the figure legends. […] Cell survival is reported as the number of viable RGCs per high-powered field.

[2] = test system: goldfish retinal ganglion cells; experiment: Cell survival in goldfish retinal ganglion cell cultures (viable RGCs per field)
Protocol: Goldfish (Comet Variety, Mt. Parnell Fisheries, Mt. Parnell Pa.), 6-10 cm in length, were dark-adapted and their retinas dissected. Retinas were incubated with papain (20 μg/ml), activated with cysteine (2.8 mM) for 30 minutes at room temperature, then dissociated by gentle trituration. […] Low density cultures were achieved by plating c. 5×10^3 cells/well into poly L-lysine coated, 24-well culture dishes (Costar, Cambridge, Mass.). […] In brief, retinas from postnatal day 8 Sparague-Dawley rats were dissociated using papain activated with cysteine. Macrophages were removed by incubation with an anti-rat macrophage antibody (Accurate) followed by immunopanning with an anti-rabbit 1gG antibody. Ganglion cells were isolated by immunopanning with an anti-Thy-1 antibody, then dislodged with trypsin for use in low-density cultures. Rat retinal ganglion cells were maintained at 37° C. in a CO2 incubator using the same medium described above except for the presence of 30 mM bicarbonate.
In a typical experiment, samples were plated in quadruplicate in randomized positions of a 24-well plate and the code was concealed to ensure that growth was evaluated in a blinded fashion. Each experiment contained 4 wells of a negative control (media plus supplements only) and 4 wells of a positive control (a standardized AF-1 sample of known activity). Growth and survival were assessed after 6 days for all ganglion cells in 25 consecutive fields of each well using phase contrast microscopy at 400× magnification (c. 150 ganglion cells counted per well). […] After the completion of counting, the code was broken, the data tabulated, and means and standard errors were calculated for the 4 replicate wells of each sample using Cricket Graph (CA Associates, Islandia, N.Y.). Data were normalized by subtracting the growth in the negative controls (usually 4-5%) and dividing by the net growth in the positive controls. […] Group comparisons were based upon pairwise, 2-tailed Student's t-tests. Several independent experiments were performed for most samples, as noted in the figure legends. In some cases, cell viability was assessed with the dye 5,6-carboxyfluorescein diacetate. Cell survival is reported as the number of viable RGCs per high-powered field.

[3] = test system: rat retinal ganglion cells; experiment: Axonal outgrowth from purified rat retinal ganglion cells; details: 6-TG 10 μM, rat RGCs
Protocol: Goldfish (Comet Variety, Mt. Parnell Fisheries, Mt. Parnell Pa.), 6-10 cm in length, were dark-adapted and their retinas dissected. Retinas were incubated with papain (20 μg/ml), activated with cysteine (2.8 mM) for 30 minutes at room temperature, then dissociated by gentle trituration. Repeated cycles of trituration and sedimentation yielded cultures nearly homogeneous in ganglion cells, which are readily identified by their oval shape, phase-bright appearance, size (diameter 15 μm), and extension of only 1 or 2 neurites of uniform caliber; these criteria have been verified by retrograde labeling (see Schwartz & Agranoff, Brain Res. 206: 331-343, 1981 and Schwalb et al., J. Neuroscience 15: 5514-5625, 1995, the contents of which are incorporated herein by reference). Low density cultures were achieved by plating c. 5×10^3 cells/well into poly L-lysine coated, 24-well culture dishes (Costar, Cambridge, Mass.). Cells were maintained at 21° C. in serum free, defined media containing insulin, selenium, transferrin, bovine serum albumin, catalase, superoxide dismutase, hormones, and vitamins in Eagle's L-15 media as described in Schwalb et al., 1995, the contents of which are incorporated herein by reference). Dissociated cultures of purified rat retinal ganglion cells were prepared by immunopanning as described in Barres et al., Neuron, 1: 791-803, 1988, the contents of which are incorporated herein by reference). In brief, retinas from postnatal day 8 Sparague-Dawley rats were dissociated using papain activated with cysteine. Macrophages were removed by incubation with an anti-rat macrophage antibody (Accurate) followed by immunopanning with an anti-rabbit 1gG antibody. Ganglion cells were isolated by immunopanning with an anti-Thy-1 antibody, then dislodged with trypsin for use in low-density cultures. Rat retinal ganglion cells were maintained at 37° C. in a CO2 incubator using the same medium described above except for the presence of 30 mM bicarbonate.
In a typical experiment, samples were plated in quadruplicate in randomized positions of a 24-well plate and the code was concealed to ensure that growth was evaluated in a blinded fashion. Each experiment contained 4 wells of a negative control (media plus supplements only) and 4 wells of a positive control (a standardized AF-1 sample of known activity). Growth and survival were assessed after 6 days for all ganglion cells in 25 consecutive fields of each well using phase contrast microscopy at 400× magnification (c. 150 ganglion cells counted per well). Extension of a process 5 cell diameters in length was the criterion for growth, since it clearly distinguishes stimulated cells from negative controls (see Schwalb et al., 1995). After the completion of counting, the code was broken, the data tabulated, and means and standard errors were calculated for the 4 replicate wells of each sample using Cricket Graph (CA Associates, Islandia, N.Y.). Data were normalized by subtracting the growth in the negative controls (usually 4-5%) and dividing by the net growth in the positive controls. In the most favorable experiments, more than 50% of retinal ganglion cells (RGCs) exposed to AF-1 extended axons 5 cell diameters in length after 6 days. Group comparisons were based upon pairwise, 2-tailed Student's t-tests. Several independent experiments were performed for most samples, as noted in the figure legends. In some cases, cell viability was assessed with the dye 5,6-carboxyfluorescein diacetate. […]

[4] = DCF alone, with AF-1, or with guanosine

In the case of “8-bromoadenosine-3′,5′ cyclic monophosphorothioate [Sp-8-Br-cAMPS]”, the axonal outgrowth activity ([1]; concentrations up to 1 mM) is reported as “inactive”.

CCCCCC[C@@H]([C@@H](C)O)n1cnc2c(N)ncnc21 (racemic) [EHNA, erythro-9-(2-hydroxy-3-nonyl) adenine] was tested, and the “effect on adenosine-stimulated outgrowth” value ([1]; 10 μM EHNA, 100 μM adenosine) was “rendered adenosine (100 μM) ineffective in stimulating outgrowth”, the “reduction of growth stimulated by guanosine or AF-1” value ([1]; EHNA 10 μM) was “about 50%” and the cell survival [2] was “not altering cell survival”.

Nc1nc(Cl)nc2c1ncn2[C@@H]1O[C@H](CO)[C@@H](O)[C@H]1O [2-CA, 2-chloroadenosine] was tested, and the “growth relative to baseline” value ([1]; 100 μM, FIG. 2) was “diminishes growth below baseline levels” and the “growth relative to baseline” value ([1]; 10 and 100 μM, 3 out of 3 experiments) was “small but significant decrease in growth below the baseline”.

In the case of Nc1nc2nc[nH]c2c(=S)[nH]1 [6-TG, 6-thioguanine], the “effect on growth stimulated by 100 μM inosine or 100 μM guanosine” value ([1]; 6-TG 10 μM) is reported as “no effect; also recorded: unaffected”, the “effect on growth stimulated by AF-1” value ([1]; 6-TG 10 μM) is reported as “blocked all growth stimulated by AF-1; also recorded: suppressed growth induced by AF-1 below baseline; also recorded: completely blocked” and the “effect on CNTF-induced outgrowth” value [3] is reported as “blocked CNTF-induced outgrowth; also recorded: inhibited”.

With Nc1nc2c(nc(Br)n2[C@@H]2O[C@@H]3COP(=O)(O)O[C@H]3[C@H]2O)c(=O)[nH]1 [8-Br cGMP, 8-bromo cyclic GMP] the axonal outgrowth activity ([1]; tested at concentrations between 1-100 μM) was “Neither dibutyryl cAMP (dBcAMP) nor 8-Br cGMP showed any activity”.

Cn1c(=O)c2[nH]c(-c3ccc(S(=O)(=O)O)cc3)nc2n(C)c1=O [8-PST, 8-p-(sulfophenyltheophylline)] was tested, and the “effect on outgrowth stimulated by adenosine, guanosine, or AF-1” value ([1]; 8-PST at 20 μM) was “no effect” and the “effect on outgrowth stimulated by AF-1, 100 μM adenosine or 100 μM guanosine” value ([1]; addition of 20 pM 8-PST) was “unaffected”.

Nc1nc2c(nc(Sc3ccc(Cl)cc3)n2[C@@H]2O[C@@H]3COP(=O)(O)O[C@H]3[C@H]2O)c(=O)[nH]1 [8-pcpt-cGMP, 8-(4-chlorophenylthio) guanosine-3′,5′-cyclic monophosphate] was tested, and the axonal outgrowth activity ([1]; concentrations up to 1 mM) was “inactive”.

With Nc1ncnc2c1ncn2[C@@H]1O[C@H](COP(=O)(O)OP(=O)(O)O)[C@@H](O)[C@H]1O [ADP, adenosine diphosphate] the axonal outgrowth activity ([1]; at 100 μM) was “marginally significant level of activity”.

In the case of Nc1ncnc2c1ncn2[C@@H]1O[C@H](COP(=O)(O)O)[C@@H](O)[C@H]1O [AMP, adenosine 5′ monophosphate], the axonal outgrowth activity ([1]; at 100 μM) is reported as “marginally significant level of activity”.

For Nc1ncnc2c1ncn2[C@@H]1O[C@H](COP(=O)(O)OP(=O)(O)OP(=O)(O)O)[C@@H](O)[C@H]1O [ATP, adenosine triphosphate], the axonal outgrowth activity ([1]; at 10 μM) was “marginally significant level of activity” and the axonal outgrowth activity ([1]; at 100 μM) was “not at 100 μM”.

With OC[C@H]1O[C@@H](n2cnc3c2NC=NC[C@H]3O)C[C@@H]1O [DCF, deoxycoformycin] the “effects of DCF on outgrowth” value [1, 4] was “did not occur” and the “effects of DCF on survival” value [2, 4] was “did not occur”.

O=[N+]([O-])c1ccc(CSc2ncnc3c2ncn3C2OC(CO)C(O)C2O)cc1 (centres unmarked) [NBTI, nitrobenzylthio inosine] was tested, and the “effect on the activity of AF-1” value ([1]; NBTI 20 μM) was “no effect”, the “loss of activity of inosine” value ([1]; NBTI 20 μM, 50 μM inosine) was 86% and the “loss of activity of guanosine” value ([1]; NBTI 20 μM, 100 μM guanosine) was 93%. For the same compound, the “decline of AF-1 activity” value ([1]; NBTI 20 μM, dipyridamole 10 μM) was 10%.

With Cc1c(C)c2c(c(C)c1O)CC[C@@](C)(CCC[C@H](C)CCC[C@H](C)CCCC(C)C)O2 [a-tocopherol] the “effect of reducing agents on outgrowth stimulated by AF-1” value [1] was “no effect; also recorded: not mimicked”.

For OCCN(CCO)c1nc(N2CCCCC2)c2nc(N(CCO)CCO)nc(N3CCCCC3)c2n1 [dipyridamole], the “effect of transport inhibitors on 6-TG blockade of AF-1-stimulated outgrowth” value ([1]; 6-TG 10 μM, NBTI 20 μM, dipyridamole 10 μM) was “failed to prevent 6-TG from blocking outgrowth; also recorded: not restored” and the “decline of AF-1 activity” value ([1]; NBTI 20 μM, dipyridamole 10 μM) was 25%.

For O=c1[nH]cnc2nc[nH]c12 [hypoxanthine], the axonal outgrowth activity ([1]; dose-response, FIG. 4) was “no activity at all” and the axonal outgrowth activity ([1]; dose-response, FIG. 4, listed as Hypoxanthine) was “inactive”.

In the case of glutathione a-methyl ester [MEG], the “effect of reducing agents on outgrowth stimulated by AF-1” value [1] is reported as “no effect; also recorded: not mimicked”.
